Laboratory results from the C3SDB collision cross section collection.

What was measured:
[1] = instrument: TW, calibrated with phosphatidylcholines (ESI+) and phosphatidylethanolamines (ESI-)
[2] = instrument: DT, single field, calibrated with Agilent tune mix (Agilent)
[3] = instrument: DT, stepped-field

## CCCCCCCCCCCCCCCC(=O)N[C@@H](CO)[C@H](O)CCCCCCCCCCCCCCC [Cer(d18:0/16:0)]
[1]; [M+H]+
  collision cross section (N2): 255.1 Å²

## CCCCCCCCCCCCC=CC[C@@H](O)[C@H](CO)NC(=O)CCCCCCCCCCCCCCCCC [Cer(d18:0/18:1)]
[1]; [M+H]+
  collision cross section (N2): 261.3 Å²

## CCCCCCCCCCCCCCCCCCCCCC(=O)N[C@@H](CO)[C@H](O)CCCCCCCCCCCCCCC [Cer(d18:0/22:0)]
[1]; [M+H]+
  collision cross section (N2): 274.1 Å²

## CCCCCCCCCCCCCCCCCCCCCCCC(=O)N[C@@H](CO)[C@H](O)CCCCCCCCCCCCCCC [Cer(d18:0/24:0)]
[1]; [M+H]+
  collision cross section (N2): 279.6 Å²

## CCCCCCCCCCCCC=CC[C@@H](O)[C@H](CO)NC(=O)CCCCCCCCCCCCCCCCCCCCCCCCC [Cer(d18:0/26:1)]
[1]; [M+H]+
  collision cross section (N2): 284.5 Å²

## CCCCCCCCCCCCC=CC[C@@H](O)[C@H](CO)NC(=O)CCCCCCCCCCCCCCC [Cer(d18:1/16:0)]
[1]; [M-H]-
  collision cross section (N2): 243.7 Å²

## CCCCCCCCCCCCC=CC[C@@H](O)[C@H](CO)NC(=O)CCCCCCCCCCCCCCCCC [Cer(d18:1/18:0)]
[1]; [M+H]+
  collision cross section (N2): 261.2 Å²
[1]; [M-H]-
  collision cross section (N2): 249.7 Å²

## CCCCCCCCCCCCC=CC[C@@H](O)[C@H](CO)NC(=O)CCCCCCCCCCCCCCCCCCCCCCCCC [Cer(d18:1/26:0)]
[1]; [M+H]+
  collision cross section (N2): 284.4 Å²

## CCCCC/C=C\C/C=C\CCCCCCCCCCCC(=O)O[C@@H](CO)COC(=O)CCCCCCCCCCCCC [DG(18:1/18:1)]
[1]; [M+H-H2O]+
  collision cross section (N2): 263.5 Å²

## CCCCCCCCCCCCCCCCCC(=O)O[C@H](CO)COP(=O)(O)OCCN [LPE(18:0)]
[2]; [M+Na]+
  collision cross section (N2): 227.5 Å²
[2]; [M-H]-
  collision cross section (N2): 214.1 Å²
[1]; [M+H]+
  collision cross section (N2): 220.8 Å²
[1]; [M+Na]+
  collision cross section (N2): 224.8 Å²
[1]; [M-H]-
  collision cross section (N2): 212.9 Å²

## CCCCCCCCCCCCCC/C=C\OC[C@@H](O)COP(=O)([O-])OCC[NH3+] [LPE(p16:0)]
[1]; [M+H]+
  collision cross section (N2): 215.6 Å²
[1]; [M+Na]+
  collision cross section (N2): 214.7 Å²
[1]; [M-H]-
  collision cross section (N2): 204.7 Å²

## CCCCCCCC/C=C\CCCCCC/C=C\OC[C@@H](O)COP(=O)([O-])OCC[NH3+] [LPE(p18:1)]
[1]; [M+H]+
  collision cross section (N2): 217.2 Å²
[1]; [M+Na]+
  collision cross section (N2): 216.5 Å²
[1]; [M-H]-
  collision cross section (N2): 208.9 Å²

## CCCCCCCC/C=C\CCCCCCCCCC(=O)O[C@H](COC(=O)CCCCCCCCCCCCC)COP(=O)(O)O [PA(34:1)]
[2]; [M+H]+
  collision cross section (N2): 271 Å²
[2]; [M+NH4]+
  collision cross section (N2): 271.2 Å²
[2]; [M+Na]+
  collision cross section (N2): 268.5 Å²
[2]; [M-H]-
  collision cross section (N2): 255.6 Å²
[1]; [M-H]-
  collision cross section (N2): 254.7 Å²

## CCCCC/C=C\C/C=C\CCCCCCCC(=O)O[C@H](COC(=O)CCCCCCCCCCCCCCC)COP(=O)(O)O [PA(34:2)]
[2]; [M+H]+
  collision cross section (N2): 267.5 Å²
[2]; [M+NH4]+
  collision cross section (N2): 267.8 Å²
[2]; [M+Na]+
  collision cross section (N2): 266.5 Å²
[1]; [M-H]-
  collision cross section (N2): 253.4 Å²

## CC/C=C\C/C=C\C/C=C\C/C=C\CCCCC(=O)OC[C@H](COP(=O)(O)O)OC(=O)CCCCCCCCC/C=C\CCCCCCCC [PA(38:5)]
[2]; [M+NH4]+
  collision cross section (N2): 277.2 Å²
[1]; [M-H]-
  collision cross section (N2): 261.6 Å²

## CC/C=C\C/C=C\C/C=C\C/C=C\C/C=C\C/C=C\CCC(=O)O[C@H](COC(=O)CCCCCCCCCCCCCCC)COP(=O)(O)O [PA(38:6)]
[1]; [M-H]-
  collision cross section (N2): 260.9 Å²

## CCCCCC/C=C\CCCCCCCCCCCC(=O)O[C@H](COC(=O)CCCCCCCCC/C=C\CCCCCC)COP(=O)([O-])OCC[N+](C)(C)C [PC(38:2)]
[2]; [M+H]+
  collision cross section (N2): 297 Å²
[1]; [M+H]+
  collision cross section (N2): 293.7 Å²

## CCCCC/C=C\C/C=C\C/C=C\CCCCC(=O)OC[C@H](COP(=O)([O-])OCC[N+](C)(C)C)OC(=O)CCCCCCCCC/C=C\CCCCCCCC [PC(38:4)]
[2]; [M+HCOO]-
  collision cross section (N2): 294.4 Å²
[2]; [M+Na]+
  collision cross section (N2): 298.5 Å²
[1]; [M+CH3COO]-
  collision cross section (N2): 296.3 Å²
[1]; [M+H]+
  collision cross section (N2): 291.2 Å²

## CCCCC/C=C\C/C=C\C/C=C\C/C=C\CCCCCC(=O)O[C@H](COC(=O)CCCCCCC/C=C\C/C=C\CCCCC)COP(=O)([O-])OCC[N+](C)(C)C [PC(40:6)]
[2]; [M+H]+
  collision cross section (N2): 296.2 Å²
[1]; [M+H]+
  collision cross section (N2): 293.3 Å²

## CCCC/C=C\C/C=C\CCCCCCCC(=O)OC[C@H](COP(=O)(O)OCCN)OC(=O)CCCCCCC/C=C\CCCCCCCCC [PE(36:3)]
[2]; [M+H]+
  collision cross section (N2): 274.9 Å²
[2]; [M+Na]+
  collision cross section (N2): 279.9 Å²
[2]; [M-H]-
  collision cross section (N2): 266.1 Å²
[1]; [M+H]+
  collision cross section (N2): 273.7 Å²
[1]; [M-H]-
  collision cross section (N2): 266.7 Å²

## CCCCC/C=C\C/C=C\C/C=C\C/C=C\CCCCCC(=O)O[C@H](COC(=O)CCCCCC/C=C\C/C=C\C/C=C\CCCCC)COP(=O)(O)OCCN [PE(42:7)]
[1]; [M+H]+
  collision cross section (N2): 291.7 Å²

## CCCCC/C=C\C/C=C\CCCCCCCC(=O)O[C@H](CO/C=C\CCCCCCCCCCCCCC)COP(=O)(O)OCCN [PE(p34:2)]
[2]; [M+H]+
  collision cross section (N2): 270 Å²
[2]; [M-H]-
  collision cross section (N2): 261.1 Å²
[1]; [M+H]+
  collision cross section (N2): 271.8 Å²

## CC/C=C\C/C=C\C/C=C\C/C=C\CCCCC(=O)O[C@H](CO/C=C\CCCCCCCCCCCCCCCC)COP(=O)(O)OCCN [PE(p36:4)]
[1]; [M+Na]+
  collision cross section (N2): 275.5 Å²
[1]; [M-H]-
  collision cross section (N2): 264.6 Å²

## CCCCC/C=C\C/C=C\CCCCCCCCCCCC(=O)O[C@H](CO/C=C\CCCCCCCCCCCCCC)COP(=O)(O)OCCN [PE(p38:2)]
[1]; [M+H]+
  collision cross section (N2): 284 Å²
[1]; [M-H]-
  collision cross section (N2): 272.7 Å²

## CCCCC/C=C\C/C=C\CCCCCCCCCC(=O)O[C@H](CO/C=C\CCCCCCCCCCCCCCCCCC)COP(=O)(O)OCCN [PE(p40:2)]
[1]; [M+H]+
  collision cross section (N2): 290 Å²
[1]; [M+Na]+
  collision cross section (N2): 291.1 Å²

## CC/C=C\C/C=C\C/C=C\C/C=C\C/C=C\C/C=C\CCC(=O)O[C@H](CO/C=C\CCCCCCCCCCCCCCCC)COP(=O)(O)OCCN [PE(p40:6)]
[1]; [M+H]+
  collision cross section (N2): 283.5 Å²
[1]; [M+Na]+
  collision cross section (N2): 286.8 Å²
[1]; [M-H]-
  collision cross section (N2): 274.4 Å²

## CC/C=C\C/C=C\C/C=C\C/C=C\C/C=C\C/C=C\CCC(=O)O[C@H](CO/C=C\CCCCCC/C=C\CCCCCCCC)COP(=O)(O)OCCN [PE(p40:7)]
[1]; [M+H]+
  collision cross section (N2): 283 Å²
[1]; [M+Na]+
  collision cross section (N2): 281 Å²

## CCCCC/C=C\C/C=C\C/C=C\C/C=C\CCCC(=O)OC[C@H](COP(=O)(O)OC[C@@H](O)CO)OC(=O)CCCCCCC/C=C\CCCCCC [PG(36:5)]
[1]; [M+Na]+
  collision cross section (N2): 277.8 Å²

## CCCCC/C=C\C/C=C\C/C=C\CCCCCCC(=O)OC[C@H](COP(=O)(O)OC[C@@H](O)CO)OC(=O)CCCCCCCCC/C=C\CCCCCCCC [PG(40:4)]
[1]; [M-H]-
  collision cross section (N2): 283.7 Å²

## CCCCCCCCCCCCCCCCCCC(=O)OC[C@H](COP(=O)(O)O[C@H]1C(O)C(O)C(O)[C@@H](O)C1O)OC(=O)CCCCCCCCCCCCCCCC (stereo partly specified) [PI(36:0)]
[1]; [M+Na]+
  collision cross section (N2): 298.6 Å²

## CCCCC/C=C\C/C=C\C/C=C\C/C=C\CCCC(=O)O[C@H](COC(=O)CCCCCC/C=C\C/C=C\C/C=C\CCCCC)COP(=O)(O)O[C@H]1C(O)C(O)C(O)[C@@H](O)C1O (stereo partly specified) [PI(40:7)]
[1]; [M+Na]+
  collision cross section (N2): 298.8 Å²

## CC/C=C\C/C=C\C/C=C\C/C=C\CCCCC(=O)OC[C@H](COP(=O)(O)O[C@H]1C(O)C(O)C(O)[C@@H](O)C1O)OC(=O)CCCCC/C=C\C/C=C\C/C=C\C/C=C\CCCCC (stereo partly specified) [PI(40:8)]
[1]; [M+Na]+
  collision cross section (N2): 296.8 Å²

## CCCCCCCC/C=C\CCCCCCCC(=O)OC[C@H](COP(=O)(O)O[C@H]1C(O)C(O)C(O)[C@@H](OP(=O)(O)O)C1O)OC(=O)CCCCCCCCCCCCCCCCC (stereo partly specified) [PIP(36:1)]
[1]; [M+H-H2O]+
  collision cross section (N2): 296.4 Å²

## CCCCC/C=C\C/C=C\CCCCCCCC(=O)O[C@H](COC(=O)CCCCCCC/C=C\CCCCCCCC)COP(=O)(O)O[C@H]1C(O)C(O)C(O)[C@@H](OP(=O)(O)O)C1O (stereo partly specified) [PIP(36:3)]
[1]; [M+H-H2O]+
  collision cross section (N2): 292.7 Å²

## CCCCC/C=C\C/C=C\C/C=C\C/C=C\CCCC(=O)O[C@H](COC(=O)CCCCCCCCCCCCCCCCC)COP(=O)(O)O[C@H]1C(O)C(O)C(O)[C@@H](OP(=O)(O)O)C1O (stereo partly specified) [PIP(38:4)]
[1]; [M+H-H2O]+
  collision cross section (N2): 300.5 Å²

## CCCCCCCCCCCCC=CC[C@@H](O)[C@H](COP(=O)([O-])OCC[N+](C)(C)C)NC(=O)CC=CCCCCCCCCCCCCCCCCCCC [SM(41:02)]
[3]; [M+HCOO]-
  collision cross section (N2): 303.33 Å²
[3]; [M+H]+
  collision cross section (N2): 298.91 Å²
[3]; [M+Na]+
  collision cross section (N2): 296.38 Å²

## CCCCCCCCCCCCC=CC[C@@H](O)[C@H](COP(=O)([O-])OCC[N+](C)(C)C)NC(=O)CC=CCC=CCCCCCCCCCCCCCCCCC [SM(42:03)]
[3]; [M+HCOO]-
  collision cross section (N2): 304.85 Å²
[3]; [M+H]+
  collision cross section (N2): 299.58 Å²
[3]; [M+Na]+
  collision cross section (N2): 297.59 Å²

## CCCCCCCCCCCCC=CC[C@@H](O)[C@H](COP(=O)([O-])OCC[N+](C)(C)C)NC(=O)CCCCCCCCCCCCCCCCCCCCCCCC [SM(43:01)]
[3]; [M+H]+
  collision cross section (N2): 306.91 Å²
[3]; [M+Na]+
  collision cross section (N2): 304.16 Å²

## CCCCCCCCCCCCC=CC[C@@H](O)[C@H](COP(=O)([O-])OCC[N+](C)(C)C)NC(=O)CC=CCCCCCCCCCCCCCCCCCCCCC [SM(43:02)]
[3]; [M+H]+
  collision cross section (N2): 304.47 Å²
[3]; [M+Na]+
  collision cross section (N2): 303.6 Å²

## CCCCCCCCCCCCC=CC[C@@H](O)[C@H](COP(=O)([O-])OCC[N+](C)(C)C)NC(=O)CC=CCCCCCCCCCCCCCC [SM(d18:1/18:1)]
[1]; [M+H]+
  collision cross section (N2): 283.2 Å²

## CCCCCCCCCCCCC=CC[C@@H](O)[C@H](COP(=O)([O-])OCC[N+](C)(C)C)NC(=O)CCCCCCCCCCCCCCCCCCCCC [SM(d18:1/22:0)]
[1]; [M+H]+
  collision cross section (N2): 297.1 Å²
